Results published in patent US20110071150A1 (priority 2009, published 2011).

Test system: Jurkat IL-2 Production
Assay: Jurkat IL-2 Production Assay
Assay type: cell-based
Conditions: Homo sapiens, Jurkat cell (ATCC), 18-20 h incubation, PHA 5 μg/mL with 1% FBS, or PMA/Ionomycin with 30% FBS (table does not say which)
How it was run: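 Jurkat cells were exposed to compound (0.25% DMSO final) for 10 min, then stimulated for 18–20 h at 37 °C. The 1% FBS condition used 5 μg/mL PHA; the high-serum condition (30% FBS) used 50 ng/mL PMA plus 500 ng/mL ionomycin. IC50 was derived from IL-2 production.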

| Structure (SMILES) | IC50 [nM] |
| --- | --- |
| Cn1nc(C(F)(F)F)cc1-c1ccc2[nH]c(-c3cccc(Cl)c3Cl)cc2c1 [Example 41, 2-(2,3-Dichloro-phenyl)-5-(2-methyl-5-trifluoromethyl-2H-pyrazol-3-yl)-1H-indole] | 486 |
| Cc1cc(S(=O)(=O)N(C)C)ccc1-c1ccc2[nH]c(C3CCCCC3)cc2c1 [Example 223, 4-(2-cyclohexyl-1H-indol-5-yl)-N,N,3-trimethylbenzenesulfonamide] | 54 |
| CC(C)c1sc(-c2cccnc2)nc1-c1ccc2[nH]c(-c3c(F)cccc3Cl)cc2c1 [Example 180, 2-(2-Chloro-6-fluoro-phenyl)-5-(5-isopropyl-2-pyridin-3-yl-thiazol-4-yl)-1H-indole] | 28 |
| Fc1cccc(F)c1-c1cc2cc(-c3ccc(C(F)(F)F)cc3C(F)(F)F)ccc2[nH]1 [Example 92, 5-(2,4-Bis-trifluoromethyl-phenyl)-2-(2,6-difluoro-phenyl)-1H-indole] | 188 |
| Cn1nc(C(F)(F)F)cc1-c1ccc2[nH]c(-c3c(F)cccc3Cl)cc2c1 [Example 48, 2-(2-Chloro-6-fluoro-phenyl)-5-(2-methyl-5-trifluoromethyl-2H-pyrazol-3-yl)-1H-indole] | 12 |
| COc1ccc(-c2cc3cc(-c4ccc(C#N)cc4C)ccc3[nH]2)c(C)n1 [Example 139, 4-(2-(6-methoxy-2-methylpyridin-3-yl)-1H-indol-5-yl)-3-methylbenzonitrile] | 162 |
| Cn1nc(-c2cccnc2)cc1-c1ccc2[nH]c(-c3cc(Cl)ccc3Cl)cc2c1 [Example 87, 2-(2,5-Dichloro-phenyl)-5-(2-methyl-5-pyridin-3-yl-2H-pyrazol-3-yl)-1H-indole] | 135 |
| Cc1cc(S(=O)(=O)N2CCN(C)CC2)ccc1-c1ccc2[nH]c(-c3c(F)cccc3Cl)cc2c1 [Example 170, 2-(2-chloro-6-fluorophenyl)-5-(2-methyl-4-(4-methylpiperazin-1-ylsulfonyl)phenyl)-1H-indole] | 170 |
| COc1cc(F)c(-c2cc3cc(-c4ccc(C#N)cc4C)ccc3[nH]2)c(F)c1 [Example 135, 4-(2-(2,6-difluoro-4-methoxyphenyl)-1H-indol-5-yl)-3-methylbenzonitrile] | 283 |
| COc1cc(C)c(-c2ccc3[nH]c(C4CCCCC4)cc3c2)cn1 [Example 224, 2-cyclohexyl-5-(6-methoxy-4-methylpyridin-3-yl)-1H-indole] | 83 |
| COc1cnc(-c2ccc3[nH]c(-c4c(F)cccc4Cl)cc3c2)c(C)c1 [Example 122, 2-(2-Chloro-6-fluoro-phenyl)-5-(5-methoxy-3-methyl-pyridin-2-yl)-1H-indole] | 260 |

Results, then the compound that gave them:

| IC50 [nM] | Structure (SMILES) |
| --- | --- |
| 908 | Cc1sc(-c2ccccn2)nc1-c1ccc2[nH]c(-c3ccncc3F)cc2c1 [Example 9, 2-(3-Fluoro-pyridin-4-yl)-5-(5-methyl-2-pyridin-2-yl-thiazol-4-yl)-1H-indole] |
| 18 | Cc1cc(Cl)ncc1-c1ccc2[nH]c(-c3c(F)cccc3Cl)cc2c1 [Example 160, 2-(2-Chloro-6-fluoro-phenyl)-5-(6-chloro-4-methyl-pyridin-3-yl)-1H-indole] |
| 994 | COc1ccc(-c2ccc3[nH]c(-c4c(F)cccc4F)cc3c2)c(OC)n1 [Example 95, 2-(2,6-Difluoro-phenyl)-5-(2,6-dimethoxy-pyridin-3-yl)-1H-indole] |
| 90 | Cc1sc(-c2ccncc2)nc1-c1ccc2[nH]c(-c3c(F)cccc3F)cc2c1 [Example 21, 2-(2,6-Difluoro-phenyl)-5-(5-methyl-2-pyridin-4-yl-thiazol-4-yl)-1H-indole] |
| 211 | CCn1nc(-c2ccccn2)cc1-c1ccc2[nH]c(-c3c(F)cccc3F)cc2c1 [Example 16, 2-(2,6-Difluoro-phenyl)-5-(2-ethyl-5-pyridin-2-yl-2H-pyrazol-3-yl)-1H-indole] |
| 279 | COc1ccc(-c2ccc3[nH]c(-c4c(F)cccc4F)cc3c2)c(Cl)c1 [Example 98, 5-(2-Chloro-4-methoxy-phenyl)-2-(2,6-difluoro-phenyl)-1H-indole] |
